In patent US20250326771A1, “PIPERAZINE DERIVATIVES USEFUL IN HIV THERAPY” (VIIV HEALTHCARE COMPANY, priority 2022, published 2025):
Where two headings read alike, the source gives them in different places.

Columns and labels:
cIAP2-BIR2 = cIAP2-BIR2 (Homo sapiens (Human), UniProt Q13489); assay: BIR binding assay (FRET competition), cIAP2 BIR2
How it was run: (§1)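 Compounds tested as 15-point, 3-fold series displacing 200 nM AlexaFluor647-labelled SMAC peptide from His-tagged BIR domain (cIAP1-BIR3 50 nM; cIAP1-BIR2 and cIAP2-BIR2 325 nM; XIAP-BIR3 100 nM), pH 7.4, 60 min. Eu-W1024 (2 nM) added 30 min; emission ratio fitted for IC50.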

cIAP1-BIR3 = cIAP1-BIR3 (Homo sapiens (Human), UniProt Q13490); assay: BIR binding assay (FRET competition), cIAP1 BIR3; details: for cIAP1 BIR3 vs BIR2 separation window: fold separation (FS) for cIAP1
How it was run: as §1

XIAP-BIR3 = XIAP-BIR3 (Homo sapiens (Human), UniProt P98170); assay: BIR binding assay (FRET competition), XIAP BIR3; details: for XIAP BIR3 vs BIR2 separation window: fold separation (FS) for XIAP
How it was run: as §1

cIAP1-BIR2 = cIAP1-BIR2 (Homo sapiens (Human), UniProt Q13490); assay: BIR binding assay (FRET competition), cIAP1 BIR2
How it was run: as §1

cIAP2-BIR3 = cIAP2-BIR3 (Homo sapiens (Human), UniProt Q13489); assay: BIR binding assay (FRET competition), cIAP2 BIR3; details: for cIAP2 BIR3 vs BIR2 separation window: fold separation (FS) for cIAP2
[1] = system: Jurkat HIV-luciferase clones; assay: Jurkat latency reversal assay; format: cell-based; details: Homo sapiens, 48 h; Jurkat latency reversal assay potency; read-out: Jurkat pEC50 (converted)
How it was run: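 EC50 and maximal activation versus vehicle were derived by four-parameter logistic regression of luciferase luminescence. The luminescence was induced in pooled Jurkat HIV-luciferase clones C16, 115 and N6 (5,000 cells/well) after 48 h at 37° C with duplicate 14-point, 3-fold dilutions starting at 10 μM (0.5% DMSO).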

XIAP-BIR2 = XIAP-BIR2 (Homo sapiens (Human), UniProt P98170); assay: BIR binding assay (FRET competition), XIAP BIR2
How it was run: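 Competitive TR-FRET used His-tagged XIAP-BIR2 (200 nM) and 200 nM AlexaFluor647-labelled AVPIAQKSE SMAC peptide in HEPES buffer pH 7.4 with CHAPS, glycerol and DTT, incubated 60 min before 30 min with 2 nM Eu-W1024. The 615/665 nm ratio from a 15-point, 3-fold series was fit with a four-parameter model for IC50/pIC50.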

[2] = FRET competition binding, read-out: XIAP BIR2 (pIC50) (converted)
[3] = FRET competition, read-out: XIAP BIR2 (pIC50) (converted)

cIAP1-BIR2, sequence (Q13490 173-257): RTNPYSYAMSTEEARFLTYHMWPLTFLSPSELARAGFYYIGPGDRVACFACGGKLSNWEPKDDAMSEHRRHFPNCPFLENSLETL
cIAP2-BIR2, sequence (Q13489 158-242): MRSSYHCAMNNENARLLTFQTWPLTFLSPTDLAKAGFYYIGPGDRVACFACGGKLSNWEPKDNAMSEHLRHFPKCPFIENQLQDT
XIAP-BIR2, sequence (P98170 124-240): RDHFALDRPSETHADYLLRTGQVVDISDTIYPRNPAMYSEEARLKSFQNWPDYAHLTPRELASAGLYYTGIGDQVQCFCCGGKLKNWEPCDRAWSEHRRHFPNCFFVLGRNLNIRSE
XIAP-BIR3, sequence (P98170 241-356): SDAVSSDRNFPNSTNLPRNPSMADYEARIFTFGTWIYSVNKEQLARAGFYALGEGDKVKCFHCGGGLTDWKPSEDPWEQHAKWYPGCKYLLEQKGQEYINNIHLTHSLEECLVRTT
cIAP2-BIR3, sequence (Q13489 238-349): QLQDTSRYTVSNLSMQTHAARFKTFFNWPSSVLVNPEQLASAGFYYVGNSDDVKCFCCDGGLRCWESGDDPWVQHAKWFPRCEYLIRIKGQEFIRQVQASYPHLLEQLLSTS
cIAP1-BIR3, sequence (Q13490 253-363): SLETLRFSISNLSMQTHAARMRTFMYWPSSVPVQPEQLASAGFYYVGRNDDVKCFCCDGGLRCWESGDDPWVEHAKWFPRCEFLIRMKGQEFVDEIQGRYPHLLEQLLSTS

Row | Structure (SMILES) | IC50 (cIAP2-BIR2) | IC50 (cIAP1-BIR3) | cIAP1 BIR3 vs BIR2 separation window (cIAP1-BIR3) | IC50 (XIAP-BIR3) | XIAP BIR3 vs BIR2 separation window (XIAP-BIR3) | IC50 (cIAP1-BIR2) | IC50 (cIAP2-BIR3) | cIAP2 BIR3 vs BIR2 separation window (cIAP2-BIR3) | EC50 [1] | IC50 (XIAP-BIR2; [2]) | IC50 (XIAP-BIR2) | IC50 (XIAP-BIR2; [3])
1 | C[C@@H]1CN(CC(=O)N2CC(C)(C)c3[nH]c(=O)c(Cc4ccc(F)cc4)cc32)[C@@H](CN2CCC(CN(C)C(=O)Cc3ccc(C(=O)N(C)CC4CCN(C[C@H]5CN[C@H](C)CN5CC(=O)N5CC(C)(C)c6[nH]c(=O)c(Cc7ccc(F)cc7)cc65)CC4)cc3)CC2)CN1 [Example 97, N-((1-(((2R,5R)-1-(2-(6-(4-fluorobenzyl)-3,3-dimethyl-5-oxo-2,3,4,5-tetrahydro-1H-pyrrolo[3,2-b]pyridin-1-yl)-2-oxoethyl)-5-methylpiperazin-2-yl)methyl)piperidin-4-yl)methyl)-4-(2-(((1-(((2R,5R)-1-(2-(6-(4-fluorobenzyl)-3,3-dimethyl-5-oxo-2,3,4,5-tetrahydro-1H-pyrrolo[3,2-b]pyridin-1-yl)-2-oxoethyl)-5-methylpiperazin-2-yl)methyl)piperidin-4-yl)methyl)(methyl)amino)-2-oxoethyl)-N-methylbenzamide] | 3160 to 10000 nM | 1.38 to 7.94 nM | ++++ (FS>10,000) | 7.94 to 15.8 nM | ++++ (FS>10,000) | 1000 to 3160 nM | 1.38 to 7.94 nM | +++ (10,000>FS>1,000) | 63.1 to 316 nM | 10000 to 51300 nM |  | 
2 | C[C@@H]1CN(CC(=O)N2CC(C)(C)c3[nH]c(=O)c(Cc4ccc(F)cc4)cc32)[C@@H](CN2CCO[C@H](C(=O)N3CCN(C(=O)[C@@H]4CN(C[C@H]5CN[C@H](C)CN5CC(=O)N5CC(C)(C)c6[nH]c(=O)c(Cc7ccc(F)cc7)cc65)CCO4)CC3)C2)CN1 [Example 118, 1,1′-(2,2′-((3R,3′R,6R,6′R)-(((2S,2'S)-(piperazine-1,4-dicarbonyl)bis(morpholine-2,4-diyl))bis(methylene))bis(3-methylpiperazine-6,1-diyl))bis(acetyl))bis(6-(4-fluorobenzyl)-3,3-dimethyl-1,2,3,4-tetrahydro-5H-pyrrolo[3,2-b]pyridin-5-one)] | 1000 to 3160 nM | 7.94 to 15.8 nM | +++ (10,000>FS>1,000) | 7.94 to 15.8 nM | ++++ (FS>10,000) | 1000 to 3160 nM | 7.94 to 15.8 nM | +++ (10,000>FS>1,000) | 12.6 to 63.1 nM |  | 10000 to 51300 nM | 
3 | C[C@@H]1CN(CC(=O)N2CC(C)(C)c3[nH]c(=O)c(Cc4ccc(F)cc4)cc32)[C@@H](CN2CCN(C(=O)COCCOCC(=O)N3CCN(C[C@H]4CN[C@H](C)CN4CC(=O)N4CC(C)(C)c5[nH]c(=O)c(Cc6ccc(F)cc6)cc54)[C@H](C)C3)C[C@H]2C)CN1 [Example 5, 1,1′-(2,2′-((3R,3′R,6R,6′R)-(((2R,2′R)-(2,2′-(ethane-1,2-diylbis(oxy))bis(acetyl))bis(2-methylpiperazine-4,1-diyl))bis(methylene))bis(3-methylpiperazine-6,1-diyl))bis(acetyl))bis(6-(4-fluorobenzyl)-3,3-dimethyl-1,2,3,4-tetrahydro-5H-pyrrolo[3,2-b]pyridin-5-one)] | 1000 to 3160 nM | 31.6 to 501 nM | ++ (1,000>FS>100) | 31.6 to 501 nM | ++++ (FS>10,000) | 3160 to 10000 nM | 15.8 to 31.6 nM | ++ (1,000>FS>100) | 63.1 to 316 nM | 10000 to 51300 nM |  | 
4 | C[C@@H]1CN(CC(=O)N2CC(C)(C)c3[nH]c(=O)c(Cc4ccccc4)cc32)[C@@H](CN2CCO[C@H](C(=O)NCc3ccc(CNC(=O)[C@@H]4CN(C[C@H]5CN[C@H](C)CN5CC(=O)N5CC(C)(C)c6[nH]c(=O)c(Cc7ccccc7)cc65)CCO4)cc3)C2)CN1 [Compound 186, (2S,2′S)-N,N′-(1,4-phenylenebis(methylene)) bis(4-(((2R,5R)-1-(2-(6-benzyl-3,3-dimethyl-5-oxo-2,3,4,5-tetrahydro-1H-pyrrolo[3,2-b]pyridin-1-yl)-2-oxoethyl)-5-methylpiperazin-2-yl)methyl)morpholine-2-carboxamide)] | 1000 to 3160 nM | 7.94 to 15.8 nM | ++ (1,000>FS>100) | 15.8 to 31.6 nM | ++++ (FS>10,000) | 22.4 to 1000 nM | 1.38 to 7.94 nM | +++ (10,000>FS>1,000) | 12.6 to 63.1 nM |  |  | 10000 to 51300 nM
5 | C[C@@H]1CN(CC(=O)N2CC(C)(C)c3[nH]c(=O)c(Cc4ccc(F)cc4)cc32)[C@@H](CN2CCO[C@H](C(=O)NCCCC(=O)N3CCN(C[C@H]4CN[C@H](C)CN4CC(=O)N4CC(C)(C)c5[nH]c(=O)c(Cc6ccc(F)cc6)cc54)[C@H](C)C3)C2)CN1 [Compound 160, (S)-4-(((2R,5R)-1-(2-(6-(4-fluorobenzyl)-3,3-dimethyl-5-oxo-2,3,4,5-tetrahydro-1H-pyrrolo[3,2-b]pyridin-1-yl)-2-oxoethyl)-5-methylpiperazin-2-yl)methyl)-N-(4-((R)-4-(((2R,5R)-1-(2-(6-(4-fluorobenzyl)-3,3-dimethyl-5-oxo-2,3,4,5-tetrahydro-1H-pyrrolo[3,2-b]pyridin-1-yl)-2-oxoethyl)-5-methylpiperazin-2-yl)methyl)-3-methylpiperazin-1-yl)-4-oxobutyl)morpholine-2-carboxamide] | 1000 to 3160 nM | 7.94 to 15.8 nM | ++ (1,000>FS>100) | 7.94 to 15.8 nM | ++++ (FS>10,000) | 1000 to 3160 nM | 7.94 to 15.8 nM | +++ (10,000>FS>1,000) | 63.1 to 316 nM |  |  | 10000 to 51300 nM
6 | C[C@@H]1CN(CC(=O)N2CC(C)(C)c3[nH]c(=O)c(Cc4ccc(F)cc4)cc32)[C@@H](CN2CCO[C@H](COc3ccc(F)c(OC[C@@H]4CN(C[C@H]5CN[C@H](C)CN5CC(=O)N5CC(C)(C)c6[nH]c(=O)c(Cc7ccc(F)cc7)cc65)CCO4)c3)C2)CN1 [Example 75, 1,1′-(2,2′-((3R,3′R,6R,6′R)-(((2S,2'S)-(((4-fluoro-1,3-phenylene)bis(oxy))bis(methylene))bis(morpholine-2,4-diyl))bis(methylene))bis(3-methylpiperazine-6,1-diyl))bis(acetyl))bis(6-(4-fluorobenzyl)-3,3-dimethyl-1,2,3,4-tetrahydro-5H-pyrrolo[3,2-b]pyridin-5-one)] | 22.4 to 1000 nM | 1.38 to 7.94 nM | +++ (10,000>FS>1,000) | 1.38 to 7.94 nM | ++++ (FS>10,000) | 22.4 to 1000 nM | 1.38 to 7.94 nM | +++ (10,000>FS>1,000) | 0.49 to 12.6 nM |  | 10000 to 51300 nM | 
7 | C[C@@H]1CN(CC(=O)N2CC(C)(C)c3[nH]c(=O)c(Cc4ccc(F)cc4)cc32)[C@@H](CN2CCC(CNC(=O)Cc3ccc(CC(=O)NCC4CCN(C[C@H]5CN[C@H](C)CN5CC(=O)N5CC(C)(C)c6[nH]c(=O)c(Cc7ccc(F)cc7)cc65)CC4)cc3)CC2)CN1 [Example 102, 2,2′-(1,4-phenylene)bis(N-((1-(((2R,5R)-1-(2-(6-(4-fluorobenzyl)-3,3-dimethyl-5-oxo-2,3,4,5-tetrahydro-1H-pyrrolo[3,2-b]pyridin-1-yl)-2-oxoethyl)-5-methylpiperazin-2-yl)methyl)piperidin-4-yl)methyl)acetamide)] | 3160 to 10000 nM | 7.94 to 15.8 nM | +++ (10,000>FS>1,000) | 7.94 to 15.8 nM | ++++ (FS>10,000) | 3160 to 10000 nM | 7.94 to 15.8 nM | ++++ (FS>10,000) | 63.1 to 316 nM | 10000 to 51300 nM |  | 
8 | C[C@@H]1CN(CC(=O)N2CC(C)(C)c3[nH]c(=O)c(Oc4ccc(F)cc4)cc32)[C@@H](CN2CCO[C@H](C(=O)NCc3ccc(CNC(=O)[C@@H]4CN(C[C@H]5CN[C@H](C)CN5CC(=O)N5CC(C)(C)c6[nH]c(=O)c(Oc7ccc(F)cc7)cc65)CCO4)cc3)C2)CN1 [Compound 181, (2S,2′S)-N,N′-(1,4-phenylenebis(methylene)) bis(4-(((2R,5R)-1-(2-(6-(4-fluorophenoxy)-3,3-dimethyl-5-oxo-2,3,4,5-tetrahydro-1H-pyrrolo[3,2-b]pyridin-1-yl)-2-oxoethyl)-5-methylpiperazin-2-yl)methyl)morpholine-2-carboxamide)] | 3160 to 10000 nM | 1.38 to 7.94 nM | ++++ (FS>10,000) | 1.38 to 7.94 nM | ++++ (FS>10,000) | 3160 to 10000 nM | 1.38 to 7.94 nM | ++++ (FS>10,000) | 63.1 to 316 nM |  |  | 10000 to 51300 nM
